# In ChEMBL document CHEMBL1641537, “Chalcone-based inhibitors against hypoxia-inducible factor 1--structure activity relationship studies” (Bioorg Med Chem Lett, 2011):
# Test: Inhibition of cobalt chloride-induced HIF-1 activation expressed in mouse NIH3T3 cells after 8 hrs by luciferase reporter gene assay
# Assay type: cell-based
# Details: NIH3T3, 8 h
row,Compound,IC50 [µM]
1,O=C(/C=C/c1ccccc1)c1ccc(F)cc1,> 20
2,O=C(/C=C/c1ccccc1O)c1ccccc1,> 20
3,COc1cc(O)c(C(=O)/C(C)=C/c2ccccc2)c(OC)c1,> 20
4,COc1cc(O)c(C(=O)/C=C/c2ccccc2Br)c(OC)c1,11.6
5,Cc1ccc(C(=O)/C=C/c2ccccc2)cc1,> 20
6,COc1cc(O)c(C(=O)/C=C/c2ccccc2C)c(OC)c1,9.9
7,COc1cc(O)c(C(=O)/C=C/c2cccc(Br)c2)c(OC)c1,2.2
8,COc1cc(O)c(C(=O)/C=C/c2cccc(C)c2)c(OC)c1,3.6
9,COc1cc(O)c(C(=O)/C=C/c2ccc(F)cc2)c(OC)c1,> 20
10,O=C(/C=C/c1ccccc1)c1ccc(F)c(F)c1,> 20
11,O=C(/C=C/c1ccccc1)c1ccc(C(F)(F)F)cc1,> 20
12,CCCOc1ccc(/C=C/C(=O)c2c(O)cc(OC)cc2OC)cc1,12
13,COc1cc(O)c(C(=O)/C=C/c2ccc(Cl)cc2)c(OC)c1,> 20
14,O=C(/C=C/c1ccc(O)cc1)c1ccccc1 [4-HYDROXYCHALCONE],> 20
15,O=C(/C=C/c1ccc(O)c(O)c1)c1ccc(O)cc1O [BUTEIN],> 20
16,COc1cc(/C=C/C(=O)CC(=O)/C=C/c2ccc(O)c(OC)c2)ccc1O [CURCUMIN],9.6
17,COc1ccc(/C=C/C(=O)c2c(O)cc(OC)cc2OC)cc1 [FLAVOKAWAIN A],11
18,COc1cc(O)c(C(=O)/C=C/c2ccccc2)c(OC)c1 [FLAVOKAWAIN B],3.3
19,COc1cc(O)c(C(=O)/C=C/c2ccc(O)cc2)c(OC)c1 [FLAVOKAWAIN C],3.1
20,CC(C)=CCc1c(O)cc(C(=O)[C@H]2[C@@H](c3c(O)ccc(C(=O)/C=C/c4ccc(O)cc4O)c3O)C=C(C)C[C@@H]2c2ccc(O)cc2O)cc1O [KUWANON J],4.1
21,CC(C)=CCc1c(O)cc(C(=O)[C@H]2[C@@H](c3c(O)ccc(C(=O)/C=C/c4ccc(O)cc4)c3O)C=C(C)C[C@@H]2c2ccc(O)cc2O)cc1O [KUWANON R],3.2
22,CC(C)=CCc1c(O)cc(C(=O)[C@H]2[C@@H](c3c(O)ccc(C(=O)/C=C/c4ccc(O)cc4)c3O)C=C(C)C[C@@H]2c2ccc(O)cc2)cc1O [KUWANON V],8.3
